Literature values as cited in patent US9090495B2, “Slow release tablet composition for treating industrial water systems” (AMSA, Inc., priority 2009, dated 2015).

Legend:
[1] = alkaline pH, such as pH~9, industrial water system conditions
[2] = typical cooling tower system; composition of U.S. Pat. No. 4,816,061

Row | SMILES | Time to degradation [1] | Duration of effectiveness of a typical dose [2] [days]
1 | N#CC(Br)(Br)C(N)=O [DBNPA, 2,2-dibromo-3-nitrilopropionamide] | a few minutes | 
2 | CCCCCCCCCCSCCN [n-decylthioethylamine] |  | 1 to 1.5
